For five compounds, IC50 and viability, T/C results are on record in PubChem BioAssay AID2060487 (Molecular Pharmacology Branch, DTP, NCI, 2025).

Where “and” joins values, the source holds several entries; their conditions need not be identical. Equal entries are not always repeated.

This assay concerns 997537-175-T-J1-PDC complex spheroid viability. Nature of the assay: Anticancer human tumor 997537-175-T-J1-PDC patient-derived colon adenocarcinoma cell line growth inhibition [GQUAD]. The following applies: for viability, T/C: stronger effect = lower value. An excerpt:
DNA G-quadruplex Stabilizer Agents in Combinations in Complex Spheroids
A high-throughput screen of multi-cell type tumor spheroids was designed to identify active combinations of DNA G-quadruplex stabilizer agents and targeted small molecules. Complex spheroids include a stromal component modeled by human endothelial cells (HUVEC) and fibroblasts modeled by human mesenchymal stem cells (MSCs). The concentration ranges selected for each drug and investigational agent were based upon clinically achievable concentrations if the clinical Cmax of the agent was known.
Compounds. The drugs and investigational agents: pidnarulex (CX-5461; NSC782164), APTO-253 (NSC789042), BRACO-19 (NSC847499), peposertib (NSC802822), ceralasertib (NSC780249), elimusertib (NSC800525), camonsertib (NSC841442), AZD-1390 (NSC803789), olaparib (NSC753686), talazoparib (NSC767125), ART-558 (NSC835418), sotorasib (NSC818433), MRTX-1133 (NSC836407), SN-38 (NSC673596), topotecan (NSC609699), etoposide (NSC141540), doxorubicin (NSC123127), gemcitabine (NSC613327), 5-fluorouracil (NSC19893), paclitaxel (NSC125973), vemurafenib (NSC761431), panobinostat (NSC761190), R-306465 (JNJ-16241199; NSC773264), adavosertib (NSC754352), TP-3654 (NSC805149), carboplatin (NSC241240), KSQ-4279 (NSC840948), and staurosporine (NSC755774) were obtained from the National Cancer Institute (NCI) Developmental Therapeutics Program Chemical Repository (34). The FDA-approved anticancer drug set is available from the NCI Developmental Therapeutics Program. […] The stock solutions were prepared in dimethyl sulfoxide (DMSO, Sigma-Aldrich, St. Louis, MO, cat. D2650) at 800-fold the tested concentration and stored at -70 degrees C prior to their use. All drugs and investigational agents were tested over a range starting from a high concentration at or near the clinical Cmax and decreasing in half-log increments. If the clinical Cmax for an agent had not been determined, the highest concentration tested was 10 microM.
2.3 Cell Culture. All cells were maintained in an incubator at 37 degrees C and 5% CO2 with 95% humidity. The PDC lines were cultured according to standard operating procedures established by the NCI PDMR. All PDCs were thawed and cultured in Matrigel-coated flasks prepared with a working solution of 1X Ham's F-12 nutrient mix, without supplementation (Invitrogen, cat. 11765054), 100 U/mL penicillin-streptomycin (Invitrogen, cat. 15140122), and 2.5% Matrigel (Corning Inc., cat. 354248) for the first three passages. The 857933-349-R-J2-PDC line was cultured in 6C/Colon 1B media, which includes advanced DMEM/F-12 (Thermo Fisher Scientific, cat. 12634028), 10 mM HEPES (Thermo Fisher Scientific, cat. 15630080), 1X GlutaMAX supplement (Thermo Fisher Scientific, cat. 35050061), 0.1 mg/mL primocin (InvivoGen, cat. ant-pm-2), 10% defined fetal bovine serum, heat inactivated (HyClone Laboratories Inc., cat. SH30070.03HI), 50% L-WRN conditioned media (ATCC, cat. CRL-3276), 1.25 mM N-Acetyl-L-cysteine (Sigma-Aldrich, cat. A9165), 10 mM nicotinamide (Sigma-Aldrich, cat. N0636), 1X B-27 supplement (Thermo Fisher Scientific, cat. 17504044), 1X N-2 supplement (Thermo Fisher Scientific, cat. 17502048), 10 microM Y-27632 dihydrochloride (Tocris Bioscience, cat. 1254), and 50 ng/mL human EGF recombinant protein (Thermo Fisher Scientific, cat. PHG0311). The 485176-168-R4-J1-PDC line was cultured in Panc media, which includes all 6C/Colon 1B media components plus 100 ng/mL human FGF-10 (Thermo Fisher Scientific, cat. 100-26), 500 nM SB-431542 (Selleckchem, cat. S1067), and gastrin (Tocris, cat. 3006).
[…]
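Also: spheroids exposed to the agents for 7 days.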
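For viability, T/C in this document: 100% = DMSO vehicle control viability.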

As to `COc1cccc2c1C(=O)c1c(O)c3c(c(O)c1C2=O)CC(O)(C(=O)CO)CC3OC1CC(N)C(O)C(C)O1` (stereo not given) + CN(C)c1ccc(Nc2c3ccc(NC(=O)CCN4CCCC4)cc3nc3cc(NC(=O)CCN4CCCC4)ccc23)cc1, the IC50 runs as follows: (curve of first compound, second compound 0.0316 µM) 6.55 µM; (curve of first compound, second compound 0.1 µM) 8.54 µM; (curve of first compound, second compound 0.316 µM) more than 10 µM; (curve of first compound, second compound 1 µM) more than 10 µM; (curve of first compound, second compound 3.16 µM) more than 10 µM; (curve of first compound, second compound 10 µM) more than 10 µM. Besides, the viability, T/C (second compound 0.0316 µM, first compound 0.0316 µM) was 98%; the viability, T/C (second compound 0.0316 µM, first compound 0.1 µM) was 88.9%; the viability, T/C (second compound 0.0316 µM, first compound 0.316 µM) is 99.1%; the viability, T/C (second compound 0.0316 µM, first compound 1 µM) is 96.3%; the viability, T/C (second compound 0.0316 µM, first compound 3.16 µM) was 71.7%; the viability, T/C (second compound 0.0316 µM, first compound 10 µM) was 37.4%. Further, the viability, T/C reads like this: (second compound 0.1 µM, first compound 0.0316 µM) 111%; (second compound 0.1 µM, first compound 0.1 µM) 88.3%; (second compound 0.1 µM, first compound 0.316 µM) 77.6%; (second compound 0.1 µM, first compound 1 µM) 94.8%; (second compound 0.1 µM, first compound 3.16 µM) 96.2%; (second compound 0.1 µM, first compound 10 µM) 42.9%. The viability, T/C runs as follows: (second compound 0.316 µM, first compound 0.0316 µM) 89.5%; (second compound 0.316 µM, first compound 0.1 µM) 88.5%; (second compound 0.316 µM, first compound 0.316 µM) 101%; (second compound 0.316 µM, first compound 1 µM) 102%; (second compound 0.316 µM, first compound 3.16 µM) 94.6%; (second compound 0.316 µM, first compound 10 µM) 56.5%. In addition, the viability, T/C runs as follows: (second compound 1 µM, first compound 0.0316 µM) 63.7%; (second compound 1 µM, first compound 0.1 µM) 86.7%; (second compound 1 µM, first compound 0.316 µM) 101%; (second compound 1 µM, first compound 1 µM) 83.8%; (second compound 1 µM, first compound 3.16 µM) 97%; (second compound 1 µM, first compound 10 µM) 51.5%. Moreover, the viability, T/C (second compound 3.16 µM, first compound 0.0316 µM) was 74.8%; the viability, T/C (second compound 3.16 µM, first compound 0.1 µM) was 77.1%; the viability, T/C (second compound 3.16 µM, first compound 0.316 µM) was 107%; the viability, T/C (second compound 3.16 µM, first compound 1 µM) was 90%; the viability, T/C (second compound 3.16 µM, first compound 3.16 µM) is 99%; the viability, T/C (second compound 3.16 µM, first compound 10 µM) was 67.3%. Besides, the viability, T/C is, setting by setting: (second compound 10 µM, first compound 0.0316 µM) 94.1%; (second compound 10 µM, first compound 0.1 µM) 84.2%; (second compound 10 µM, first compound 0.316 µM) 102%; (second compound 10 µM, first compound 1 µM) 83.3%; (second compound 10 µM, first compound 3.16 µM) 81%; (second compound 10 µM, first compound 10 µM) 58.2%.
For `COc1ncnc(C2CC2)c1-c1ncc2cnn(Cc3ccc(-c4nc(C(F)(F)F)cn4C(C)C)cc3)c2n1`, the viability, T/C (compound 0.0316 µM) is 108% and 102% and 88.2%; the viability, T/C (compound 0.1 µM) is 74.8% and 112% and 95%; the viability, T/C (compound 0.316 µM) is 108% and 90.8% and 83.2%; the viability, T/C (compound 1 µM) is 75.4% and 97.9% and 84.9%; the viability, T/C (compound 3.16 µM) was 82.6% and 103% and 75.4%; the viability, T/C (compound 10 µM) is 80.2% and 58% and 77.7%. Besides, under “curve of compound”, the IC50 was more than 10 µM.
As for `CC1COCCN1c1cc(-c2ccnn2C)c2ccnc(-c3ccn[nH]3)c2n1` (stereo not given), the viability, T/C runs as follows: (compound 0.0316 µM) 80.4% and 95.8% and 90.8%; (compound 0.1 µM) 67.5% and 75.7% and 62.5%; (compound 0.316 µM) 46% and 65.2% and 33.9%; (compound 1 µM) 61% and 40% and 50%; (compound 3.16 µM) 58% and 48.9% and 43.1%; (compound 10 µM) 36.4% and 43.5% and 49.4%. In addition, the IC50 (curve of compound) is 1.75 µM and 0.846 µM and 0.219 µM.
With `COc1ccc([C@@H](O)c2cc(-c3ncnc4cc(N5CCOCC5)ccc34)c(F)cc2Cl)nn1`, the viability, T/C was 92.9% and 91.3% and 86% (compound 0.0316 µM); 90.2% and 89.7% and 104% (compound 0.1 µM); 94.4% and 88.5% and 89.3% (compound 0.316 µM); 101% and 83.3% and 91.5% (compound 1 µM); 82.6% and 73.8% and 58.5% (compound 3.16 µM); 65.1% and 78.9% and 67.7% (compound 10 µM). Besides, for the setting “curve of compound”, the IC50 is more than 10 µM.
Turning to `C#Cc1c(F)ccc2cc(O)cc(-c3ncc4c(N5CC6CCC(C5)N6)nc(OCC56CCCN5CC(F)C6)nc4c3F)c12` (stereo not given), the viability, T/C reads like this: (compound 0.0316 µM) 89% and 91.8% and 98.1%; (compound 0.1 µM) 89.1% and 92.2% and 103%; (compound 0.316 µM) 104% and 94.8% and 102%; (compound 1 µM) 99.4% and 67.4% and 107%; (compound 3.16 µM) 88.9% and 38.7% and 91.8%; (compound 10 µM) 106% and 35.1% and 92.4%. Moreover, the IC50 (curve of compound) was > 10 µM and 1.94 µM.
